Where two headings read alike, the source gives them in different places.
Key:
[1] = system: strains expressing class A ESBLs; format: cell-based
Description: Selected β-lactamase inhibitors were also tested for their ability to potentiate the monobactam tigemonam.

[2] = Single dose pharmacokinetics and oral bioavailability in rats, Table 15; format: in vivo, Sprague-Dawley (SD) rats
Description: An in vivo model can be used to evaluate the single dose pharmacokinetic properties and absolute oral bioavailability of a test compound. As described more specifically below, a test compound is administered to Sprague-Dawley (SD) rats either intravenously or orally in a crossover study design and the resulting pharmacokinetic properties and oral bioavailability are measured. […] Plasma samples (0.3 ml) were collected from jugular vein cannula at 0.17, 0.33, 0.47, 0.58, 0.68, 0.75, 1, 2, 3, 4, and 6 hrs after the dosing. […] The samples were mixed and centrifuged for 30 min at 3000×g. 150 μL of supernatant was removed and added to 450 μL of water. HPLC-mass spectrometry: An Agilent 1100HPLC pump, HTC PAL autosampler and a Sciex […] mass spectrometer were used for separation and quantification. Compound 62 and its internal standard were detected using +ESI. Compound 5 and its internal standard were detected using -ESI. LC/MS/MS: 1) Column: Chromolith FastGradient RP-18e, 50×2 mm; 2) Mobile phase A: Aqueous Water with 0.1% TFA, Orgainic phase B: Acetonitrile with 0.1% TFA; Flow Rate: 600 μL/min; Injection volume: 10 μL; […] Plasma concentrations were modeled using WinNonlin® (Pharsight Corp, Mountain View, Calif.). In this experiment, three male Sprague Dawley rats were given Compound 5 by intravenous or oral route. At designated time points, bloods were collected and analyzed. […] Plasma samples were collected at designated time points and analyzed for the presence of Compound 5. […] Male rats (non-fasted) were orally administered 50 mg/kg of the prodrug Compound 62.

KPC-3, lysate of EC1007 = KPC-3, lysate of EC1007 (Klebsiella pneumoniae, UniProt Q9F663, H272Y); experiment: Inhibition of biapenem hydrolysis by bacterial lysate
Chain of KPC-3, lysate of EC1007 (Q9F663 whole entry H272Y, looked up): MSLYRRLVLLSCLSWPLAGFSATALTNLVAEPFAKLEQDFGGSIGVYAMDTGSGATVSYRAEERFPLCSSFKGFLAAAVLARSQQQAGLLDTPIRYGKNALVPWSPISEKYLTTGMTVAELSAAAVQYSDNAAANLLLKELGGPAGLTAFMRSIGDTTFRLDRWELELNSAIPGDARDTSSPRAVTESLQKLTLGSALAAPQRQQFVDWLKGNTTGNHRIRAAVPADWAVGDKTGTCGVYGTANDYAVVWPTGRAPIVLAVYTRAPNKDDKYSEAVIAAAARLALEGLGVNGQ

For `O=C(O)C[C@@H]1CC[C@H](NC(=O)Cc2cccs2)B(O)O1` [Compound 5, 2-((3R,6S)-2-hydroxy-3-(2-(thiophen-2-yl)acetamido)-1,2-oxaborinan-6-yl)acetic acid], the “MPC4 CTX-M-14 KP1005” value [1] was “Z (key: X: MPC@4 of less than 2 μg/mL; Y: MPC@4 of 2 μg/mL to 10 μg/mL; Z: MPC@4 of greater than 10 μg/mL)”, the “MPC4 CTX-M-15 KP1009” value [1] was “Z (key: X: MPC@4 of less than 2 μg/mL; Y: MPC@4 of 2 μg/mL to 10 μg/mL; Z: MPC@4 of greater than 10 μg/mL)” and the “MPC4 SHV-5 ec308” value [1] was “Z (key: X: MPC@4 of less than 2 μg/mL; Y: MPC@4 of 2 μg/mL to 10 μg/mL; Z: MPC@4 of greater than 10 μg/mL)”. The “MPC4 SHV-12 KP1010” value [1] was “Z (key: X: MPC@4 of less than 2 μg/mL; Y: MPC@4 of 2 μg/mL to 10 μg/mL; Z: MPC@4 of greater than 10 μg/mL)”, the “MPC4 SHV-18 KP1012” value [1] was “Z (key: X: MPC@4 of less than 2 μg/mL; Y: MPC@4 of 2 μg/mL to 10 μg/mL; Z: MPC@4 of greater than 10 μg/mL)” and the “MPC4 TEM-10 EC1009” value [1] was “Z (key: X: MPC@4 of less than 2 μg/mL; Y: MPC@4 of 2 μg/mL to 10 μg/mL; Z: MPC@4 of greater than 10 μg/mL)”. The “MPC4 TEM-10 ec302” value [1] was “Z (key: X: MPC@4 of less than 2 μg/mL; Y: MPC@4 of 2 μg/mL to 10 μg/mL; Z: MPC@4 of greater than 10 μg/mL)”, the “MPC4 TEM-26 ec304” value [1] was “Z (key: X: MPC@4 of less than 2 μg/mL; Y: MPC@4 of 2 μg/mL to 10 μg/mL; Z: MPC@4 of greater than 10 μg/mL)” and the half-life ([2]; Sprague-Dawley, rat, plasma, male SD rats, IV, 20 mg/kg) was 1.56 h. The half-life ([2]; Sprague-Dawley, rat, plasma, male SD rats, PO, 50 mg/kg) was 1.55 h, the AUC ([2]; Sprague-Dawley, rat, plasma, male SD rats, PO, 50 mg/kg, read-out: AUC) was 810 ng·h/mL and the CL/F ([2]; Sprague-Dawley, rat, plasma, male SD rats, PO, 50 mg/kg, read-out: CL/F (converted)) was 1010 mL/min/kg. For the same compound, the Cmax ([2]; Sprague-Dawley, rat, plasma, male SD rats, PO, 50 mg/kg, read-out: Cmax) was 290 ng/mL, the AUC ([2]; male SD rats, IV, 20 mg/kg) was 12150 ng·h/mL and the CL/F ([2]; male SD rats, IV, 20 mg/kg) was 27.5 mL/min/kg. It also gave a Cmax ([2]; male SD rats, IV, 20 mg/kg) of 19820 ng/mL, an AUC ([2]; male SD rats, IV, 50 mg/kg) of 28190 ng·h/mL and a CL/F ([2]; male SD rats, IV, 50 mg/kg) of 29.5 mL/min/kg. The Cmax ([2]; male SD rats, IV, 50 mg/kg) was 45930 ng/mL, the T1/2 ([2]; male SD rats, IV, 50 mg/kg) was 4.53 h and the oral absorption ([2]; rats, 50 mg/kg orally in saline) was “not orally absorbed”. The PK linearity ([2]; rats, intravenous 20 or 50 mg/kg) was “linear PK”.
`Cl.N[C@H]1CCC(CC(=O)O)OB1O` (stereo partly drawn) [Compound 7, 2-((3R)-3-amino-2-hydroxy-1,2-oxaborinan-6-yl)acetic acid hydrochloride] showed an IC50 (KPC-3, lysate of EC1007) greater than 4.77 µM.
